# Assay results as given in ChEMBL document CHEMBL3991601, “The target landscape of clinical kinase drugs” (Science, 2017).
# The source made the active and inactive calls. Rule as the data show it, for most assays here: actives have a measured Kd and inactives only a lower limit.
# Target: T1, Serine/threonine-protein kinase TAO1 (Homo sapiens, UniProt Q7L7X3)
# T1 sequence (Q7L7X3 whole entry): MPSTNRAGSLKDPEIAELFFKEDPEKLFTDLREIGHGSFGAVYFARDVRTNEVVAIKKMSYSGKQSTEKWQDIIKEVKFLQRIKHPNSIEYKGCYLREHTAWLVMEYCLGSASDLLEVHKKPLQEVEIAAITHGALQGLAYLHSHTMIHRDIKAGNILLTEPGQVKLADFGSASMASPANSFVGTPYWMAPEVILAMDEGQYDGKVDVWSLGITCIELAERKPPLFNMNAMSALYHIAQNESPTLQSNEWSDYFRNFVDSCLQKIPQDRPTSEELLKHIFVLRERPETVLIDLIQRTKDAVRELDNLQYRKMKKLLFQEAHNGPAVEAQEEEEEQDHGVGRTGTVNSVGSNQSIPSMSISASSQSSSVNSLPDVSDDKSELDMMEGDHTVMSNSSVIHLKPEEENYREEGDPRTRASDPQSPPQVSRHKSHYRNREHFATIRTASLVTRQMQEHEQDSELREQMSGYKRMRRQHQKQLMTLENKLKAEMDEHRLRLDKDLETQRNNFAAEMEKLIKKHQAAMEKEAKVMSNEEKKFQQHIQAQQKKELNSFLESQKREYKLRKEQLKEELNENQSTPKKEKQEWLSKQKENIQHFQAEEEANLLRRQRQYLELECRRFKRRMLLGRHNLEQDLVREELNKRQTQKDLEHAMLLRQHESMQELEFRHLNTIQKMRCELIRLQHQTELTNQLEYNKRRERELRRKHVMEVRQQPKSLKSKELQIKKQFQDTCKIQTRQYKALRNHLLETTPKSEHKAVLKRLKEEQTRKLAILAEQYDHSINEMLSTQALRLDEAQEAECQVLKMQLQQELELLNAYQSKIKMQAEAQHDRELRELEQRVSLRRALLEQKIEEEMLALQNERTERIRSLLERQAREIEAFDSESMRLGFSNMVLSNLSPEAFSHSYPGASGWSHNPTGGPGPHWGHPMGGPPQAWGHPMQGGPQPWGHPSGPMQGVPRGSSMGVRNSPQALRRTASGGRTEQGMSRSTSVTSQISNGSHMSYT
# Also: in the data inactive means no Kd found up to 30 µM.
row,SMILES,Kd
1,COc1cc2nccc(Oc3ccc(NC(=O)NC4CC4)c(Cl)c3)c2cc1C(N)=O [LENVATINIB],> 30 µM (inactive)
2,C1=C/COCc2cc(ccc2OCCN2CCCC2)Nc2nccc(n2)-c2cccc(c2)COC/1 [PACRITINIB],2.19 µM (active)
3,CNC(=O)c1ccc(C)c(-n2c(C)cc(OCc3ccc(F)cc3F)c(Br)c2=O)c1 [PH-797804],> 30 µM (inactive)

# Target: Ribosomal protein S6 kinase alpha-4 (Homo sapiens, UniProt O75676)
row,SMILES,Kd
1,COc1cc2nccc(Oc3ccc(NC(=O)NC4CC4)c(Cl)c3)c2cc1C(N)=O [LENVATINIB],> 30 µM (inactive)
2,C1=C/COCc2cc(ccc2OCCN2CCCC2)Nc2nccc(n2)-c2cccc(c2)COC/1 [PACRITINIB],> 30 µM (inactive)
3,CNC(=O)c1ccc(C)c(-n2c(C)cc(OCc3ccc(F)cc3F)c(Br)c2=O)c1 [PH-797804],> 30 µM (inactive)

# Target: T2, ATP-dependent 6-phosphofructokinase, platelet type (Homo sapiens, UniProt Q01813)
# T2 sequence (Q01813 whole entry): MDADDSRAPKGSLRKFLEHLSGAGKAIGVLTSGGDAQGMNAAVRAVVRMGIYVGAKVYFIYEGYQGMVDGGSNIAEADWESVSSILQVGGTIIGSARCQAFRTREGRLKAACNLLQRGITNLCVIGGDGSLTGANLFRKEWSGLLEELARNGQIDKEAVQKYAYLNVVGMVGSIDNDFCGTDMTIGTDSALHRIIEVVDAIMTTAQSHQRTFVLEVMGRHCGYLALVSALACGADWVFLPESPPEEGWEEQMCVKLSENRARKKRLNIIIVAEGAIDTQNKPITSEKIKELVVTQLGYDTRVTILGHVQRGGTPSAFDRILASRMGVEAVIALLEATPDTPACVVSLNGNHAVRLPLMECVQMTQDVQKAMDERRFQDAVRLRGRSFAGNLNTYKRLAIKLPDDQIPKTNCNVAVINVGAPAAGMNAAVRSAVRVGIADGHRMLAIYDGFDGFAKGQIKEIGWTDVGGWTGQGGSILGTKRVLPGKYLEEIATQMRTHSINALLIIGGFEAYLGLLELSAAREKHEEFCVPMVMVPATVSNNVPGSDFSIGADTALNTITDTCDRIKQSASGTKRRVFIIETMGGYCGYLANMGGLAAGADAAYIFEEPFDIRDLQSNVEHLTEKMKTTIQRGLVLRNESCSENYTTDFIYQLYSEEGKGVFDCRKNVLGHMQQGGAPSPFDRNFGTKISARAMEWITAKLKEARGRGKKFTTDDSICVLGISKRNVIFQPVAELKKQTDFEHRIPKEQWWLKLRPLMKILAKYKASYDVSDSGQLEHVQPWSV
row,SMILES,Kd
1,COc1cc2nccc(Oc3ccc(NC(=O)NC4CC4)c(Cl)c3)c2cc1C(N)=O [LENVATINIB],> 30 µM (inactive)
2,C1=C/COCc2cc(ccc2OCCN2CCCC2)Nc2nccc(n2)-c2cccc(c2)COC/1 [PACRITINIB],> 30 µM (inactive)
3,CNC(=O)c1ccc(C)c(-n2c(C)cc(OCc3ccc(F)cc3F)c(Br)c2=O)c1 [PH-797804],> 30 µM (inactive)

# Target: Tyrosine-protein kinase Fer (Homo sapiens, UniProt P16591)
row,SMILES,Kd
1,C1=C/COCc2cc(ccc2OCCN2CCCC2)Nc2nccc(n2)-c2cccc(c2)COC/1 [PACRITINIB],3.66 µM (active)
2,CNC(=O)c1ccc(C)c(-n2c(C)cc(OCc3ccc(F)cc3F)c(Br)c2=O)c1 [PH-797804],> 30 µM (inactive)

# Target: Deoxycytidine kinase (Homo sapiens, UniProt P27707)
# Sequence (P27707 whole entry): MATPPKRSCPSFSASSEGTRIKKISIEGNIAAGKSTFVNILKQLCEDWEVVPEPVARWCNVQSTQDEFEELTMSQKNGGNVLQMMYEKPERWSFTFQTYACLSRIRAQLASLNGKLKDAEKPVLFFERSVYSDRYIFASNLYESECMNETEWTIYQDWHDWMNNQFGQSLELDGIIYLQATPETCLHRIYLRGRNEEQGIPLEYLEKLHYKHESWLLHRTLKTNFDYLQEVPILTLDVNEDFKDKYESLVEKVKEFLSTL
row,SMILES,Kd
1,COc1cc2nccc(Oc3ccc(NC(=O)NC4CC4)c(Cl)c3)c2cc1C(N)=O [LENVATINIB],> 30 µM (inactive)
2,C1=C/COCc2cc(ccc2OCCN2CCCC2)Nc2nccc(n2)-c2cccc(c2)COC/1 [PACRITINIB],> 30 µM (inactive)
3,CNC(=O)c1ccc(C)c(-n2c(C)cc(OCc3ccc(F)cc3F)c(Br)c2=O)c1 [PH-797804],> 30 µM (inactive)

# Target: Atypical kinase COQ8A, mitochondrial (Homo sapiens, UniProt Q8NI60)
# Sequence (Q8NI60 whole entry): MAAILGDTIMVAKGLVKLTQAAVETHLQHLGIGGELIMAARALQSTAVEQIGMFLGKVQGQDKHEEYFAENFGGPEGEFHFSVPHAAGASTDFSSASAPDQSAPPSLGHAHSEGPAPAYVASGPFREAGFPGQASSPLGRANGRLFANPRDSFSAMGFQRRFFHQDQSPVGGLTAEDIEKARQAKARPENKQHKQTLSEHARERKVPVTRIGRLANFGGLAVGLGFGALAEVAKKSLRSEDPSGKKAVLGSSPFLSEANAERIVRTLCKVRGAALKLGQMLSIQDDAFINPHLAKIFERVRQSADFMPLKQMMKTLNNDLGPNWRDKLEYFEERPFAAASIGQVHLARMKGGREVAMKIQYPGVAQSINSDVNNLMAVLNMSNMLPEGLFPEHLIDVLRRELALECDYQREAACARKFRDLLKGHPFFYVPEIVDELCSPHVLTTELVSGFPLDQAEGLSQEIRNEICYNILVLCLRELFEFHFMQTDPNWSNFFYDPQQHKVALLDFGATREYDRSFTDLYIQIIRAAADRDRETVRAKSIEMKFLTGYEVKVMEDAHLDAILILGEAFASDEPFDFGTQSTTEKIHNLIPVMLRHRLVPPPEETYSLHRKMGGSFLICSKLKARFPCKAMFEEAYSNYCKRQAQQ
row,SMILES,Kd
1,COc1cc2nccc(Oc3ccc(NC(=O)NC4CC4)c(Cl)c3)c2cc1C(N)=O [LENVATINIB],> 30 µM (inactive)
2,C1=C/COCc2cc(ccc2OCCN2CCCC2)Nc2nccc(n2)-c2cccc(c2)COC/1 [PACRITINIB],> 30 µM (inactive)
3,CNC(=O)c1ccc(C)c(-n2c(C)cc(OCc3ccc(F)cc3F)c(Br)c2=O)c1 [PH-797804],> 30 µM (inactive)

# Target: STE20-like serine/threonine-protein kinase (Homo sapiens, UniProt Q9H2G2)
# Sequence (Q9H2G2 whole entry): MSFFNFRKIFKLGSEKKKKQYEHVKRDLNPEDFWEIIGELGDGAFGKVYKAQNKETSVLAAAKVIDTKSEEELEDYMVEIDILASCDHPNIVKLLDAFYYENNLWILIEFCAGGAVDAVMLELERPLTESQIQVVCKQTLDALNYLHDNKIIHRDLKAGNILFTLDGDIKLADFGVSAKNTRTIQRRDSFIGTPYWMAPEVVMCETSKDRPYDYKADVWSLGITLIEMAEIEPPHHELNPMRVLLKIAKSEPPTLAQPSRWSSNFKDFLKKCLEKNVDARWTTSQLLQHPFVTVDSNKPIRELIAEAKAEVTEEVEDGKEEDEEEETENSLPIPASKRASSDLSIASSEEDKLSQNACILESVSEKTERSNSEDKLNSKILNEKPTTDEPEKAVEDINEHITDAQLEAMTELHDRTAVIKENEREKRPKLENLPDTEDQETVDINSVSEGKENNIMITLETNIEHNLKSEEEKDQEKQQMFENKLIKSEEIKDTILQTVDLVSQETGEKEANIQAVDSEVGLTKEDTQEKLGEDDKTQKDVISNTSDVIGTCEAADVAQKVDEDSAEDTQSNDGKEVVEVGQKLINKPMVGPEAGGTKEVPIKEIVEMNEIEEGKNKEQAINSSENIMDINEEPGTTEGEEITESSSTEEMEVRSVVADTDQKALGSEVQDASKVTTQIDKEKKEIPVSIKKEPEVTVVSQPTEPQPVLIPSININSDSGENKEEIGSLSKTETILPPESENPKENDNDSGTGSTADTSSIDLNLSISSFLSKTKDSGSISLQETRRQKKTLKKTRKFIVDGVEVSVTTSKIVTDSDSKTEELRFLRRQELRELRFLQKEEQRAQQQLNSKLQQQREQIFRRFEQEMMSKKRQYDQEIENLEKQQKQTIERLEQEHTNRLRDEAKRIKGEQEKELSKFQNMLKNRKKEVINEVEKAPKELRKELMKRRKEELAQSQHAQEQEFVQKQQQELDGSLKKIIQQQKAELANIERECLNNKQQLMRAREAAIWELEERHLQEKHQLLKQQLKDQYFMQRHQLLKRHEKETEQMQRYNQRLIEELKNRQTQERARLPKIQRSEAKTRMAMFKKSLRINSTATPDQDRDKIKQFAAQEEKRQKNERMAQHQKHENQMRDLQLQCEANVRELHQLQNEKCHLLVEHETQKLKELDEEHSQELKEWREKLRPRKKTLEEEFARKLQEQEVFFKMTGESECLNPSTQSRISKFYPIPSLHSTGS
row,SMILES,Kd
1,COc1cc2nccc(Oc3ccc(NC(=O)NC4CC4)c(Cl)c3)c2cc1C(N)=O [LENVATINIB],3.85 µM (active)
2,C1=C/COCc2cc(ccc2OCCN2CCCC2)Nc2nccc(n2)-c2cccc(c2)COC/1 [PACRITINIB],> 30 µM (inactive)
3,CNC(=O)c1ccc(C)c(-n2c(C)cc(OCc3ccc(F)cc3F)c(Br)c2=O)c1 [PH-797804],> 30 µM (inactive)

# Target: MAP kinase-activated protein kinase 2 (Homo sapiens, UniProt P49137)
row,SMILES,Kd
1,COc1cc2nccc(Oc3ccc(NC(=O)NC4CC4)c(Cl)c3)c2cc1C(N)=O [LENVATINIB],0.063 µM (active)
2,C1=C/COCc2cc(ccc2OCCN2CCCC2)Nc2nccc(n2)-c2cccc(c2)COC/1 [PACRITINIB],> 30 µM (inactive)

# Target: T3, Mitogen-activated protein kinase kinase kinase 2 (Homo sapiens, UniProt Q9Y2U5)
# T3 sequence (Q9Y2U5 whole entry): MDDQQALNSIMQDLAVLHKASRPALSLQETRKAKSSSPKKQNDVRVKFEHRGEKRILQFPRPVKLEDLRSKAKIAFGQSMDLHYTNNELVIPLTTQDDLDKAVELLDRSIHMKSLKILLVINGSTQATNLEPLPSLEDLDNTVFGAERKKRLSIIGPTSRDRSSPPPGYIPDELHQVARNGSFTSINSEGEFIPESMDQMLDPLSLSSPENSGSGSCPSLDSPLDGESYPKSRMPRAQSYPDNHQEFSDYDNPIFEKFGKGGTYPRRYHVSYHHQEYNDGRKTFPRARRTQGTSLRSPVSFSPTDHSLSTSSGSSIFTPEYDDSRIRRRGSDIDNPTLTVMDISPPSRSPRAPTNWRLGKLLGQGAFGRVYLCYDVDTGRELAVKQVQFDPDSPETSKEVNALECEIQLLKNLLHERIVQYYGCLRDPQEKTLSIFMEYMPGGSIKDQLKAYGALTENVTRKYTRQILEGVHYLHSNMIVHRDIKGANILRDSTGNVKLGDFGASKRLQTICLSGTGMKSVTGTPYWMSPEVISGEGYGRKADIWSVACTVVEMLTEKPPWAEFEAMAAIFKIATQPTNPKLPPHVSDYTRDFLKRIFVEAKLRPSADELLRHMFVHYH
row,SMILES,Kd
1,C1=C/COCc2cc(ccc2OCCN2CCCC2)Nc2nccc(n2)-c2cccc(c2)COC/1 [PACRITINIB],> 30 µM (inactive)
2,CNC(=O)c1ccc(C)c(-n2c(C)cc(OCc3ccc(F)cc3F)c(Br)c2=O)c1 [PH-797804],> 30 µM (inactive)

# Target: Tyrosine-protein kinase Lyn (Homo sapiens, UniProt P07948)
# Sequence (P07948 whole entry): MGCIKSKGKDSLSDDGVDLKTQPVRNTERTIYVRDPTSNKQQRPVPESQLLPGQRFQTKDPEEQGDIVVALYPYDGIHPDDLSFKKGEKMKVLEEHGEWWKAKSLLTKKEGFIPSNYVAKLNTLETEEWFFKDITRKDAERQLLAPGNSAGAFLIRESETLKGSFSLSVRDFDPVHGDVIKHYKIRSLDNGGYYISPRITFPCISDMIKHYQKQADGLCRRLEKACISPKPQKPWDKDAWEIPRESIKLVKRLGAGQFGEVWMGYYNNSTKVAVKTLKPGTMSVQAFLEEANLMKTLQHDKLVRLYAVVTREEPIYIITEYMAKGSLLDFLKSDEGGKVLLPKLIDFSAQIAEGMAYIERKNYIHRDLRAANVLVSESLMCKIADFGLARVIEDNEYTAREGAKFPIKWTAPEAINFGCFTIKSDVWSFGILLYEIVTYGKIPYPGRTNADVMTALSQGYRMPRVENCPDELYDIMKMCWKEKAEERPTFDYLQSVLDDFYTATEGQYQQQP
row,SMILES,Kd
1,COc1cc2nccc(Oc3ccc(NC(=O)NC4CC4)c(Cl)c3)c2cc1C(N)=O [LENVATINIB],> 30 µM (inactive)
2,C1=C/COCc2cc(ccc2OCCN2CCCC2)Nc2nccc(n2)-c2cccc(c2)COC/1 [PACRITINIB],> 30 µM (inactive)
3,CNC(=O)c1ccc(C)c(-n2c(C)cc(OCc3ccc(F)cc3F)c(Br)c2=O)c1 [PH-797804],> 30 µM (inactive)

# Target: ATP-dependent RNA helicase DDX3X (Homo sapiens, UniProt O00571)
# Sequence (O00571 whole entry): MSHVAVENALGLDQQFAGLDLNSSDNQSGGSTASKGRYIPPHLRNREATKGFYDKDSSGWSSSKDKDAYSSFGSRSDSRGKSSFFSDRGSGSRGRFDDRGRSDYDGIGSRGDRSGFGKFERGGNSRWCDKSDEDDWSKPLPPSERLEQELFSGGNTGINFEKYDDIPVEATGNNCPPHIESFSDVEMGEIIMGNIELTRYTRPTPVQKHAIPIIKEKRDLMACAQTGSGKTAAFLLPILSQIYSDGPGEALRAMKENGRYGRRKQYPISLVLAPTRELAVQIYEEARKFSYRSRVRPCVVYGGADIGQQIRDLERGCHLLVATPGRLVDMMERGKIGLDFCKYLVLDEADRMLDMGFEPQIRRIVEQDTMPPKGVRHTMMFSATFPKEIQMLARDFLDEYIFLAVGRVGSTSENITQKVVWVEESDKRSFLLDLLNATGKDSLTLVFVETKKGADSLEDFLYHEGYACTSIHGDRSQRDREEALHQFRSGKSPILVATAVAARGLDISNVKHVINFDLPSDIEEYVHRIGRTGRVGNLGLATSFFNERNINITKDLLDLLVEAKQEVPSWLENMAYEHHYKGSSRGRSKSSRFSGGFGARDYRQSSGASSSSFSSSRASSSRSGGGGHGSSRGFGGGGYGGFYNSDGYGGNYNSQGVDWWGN
row,SMILES,Kd
1,COc1cc2nccc(Oc3ccc(NC(=O)NC4CC4)c(Cl)c3)c2cc1C(N)=O [LENVATINIB],> 30 µM (inactive)
2,C1=C/COCc2cc(ccc2OCCN2CCCC2)Nc2nccc(n2)-c2cccc(c2)COC/1 [PACRITINIB],> 30 µM (inactive)
3,CNC(=O)c1ccc(C)c(-n2c(C)cc(OCc3ccc(F)cc3F)c(Br)c2=O)c1 [PH-797804],> 30 µM (inactive)

# Target: Mitogen-activated protein kinase kinase kinase 1 (Homo sapiens, UniProt Q13233)
# Sequence (Q13233 whole entry): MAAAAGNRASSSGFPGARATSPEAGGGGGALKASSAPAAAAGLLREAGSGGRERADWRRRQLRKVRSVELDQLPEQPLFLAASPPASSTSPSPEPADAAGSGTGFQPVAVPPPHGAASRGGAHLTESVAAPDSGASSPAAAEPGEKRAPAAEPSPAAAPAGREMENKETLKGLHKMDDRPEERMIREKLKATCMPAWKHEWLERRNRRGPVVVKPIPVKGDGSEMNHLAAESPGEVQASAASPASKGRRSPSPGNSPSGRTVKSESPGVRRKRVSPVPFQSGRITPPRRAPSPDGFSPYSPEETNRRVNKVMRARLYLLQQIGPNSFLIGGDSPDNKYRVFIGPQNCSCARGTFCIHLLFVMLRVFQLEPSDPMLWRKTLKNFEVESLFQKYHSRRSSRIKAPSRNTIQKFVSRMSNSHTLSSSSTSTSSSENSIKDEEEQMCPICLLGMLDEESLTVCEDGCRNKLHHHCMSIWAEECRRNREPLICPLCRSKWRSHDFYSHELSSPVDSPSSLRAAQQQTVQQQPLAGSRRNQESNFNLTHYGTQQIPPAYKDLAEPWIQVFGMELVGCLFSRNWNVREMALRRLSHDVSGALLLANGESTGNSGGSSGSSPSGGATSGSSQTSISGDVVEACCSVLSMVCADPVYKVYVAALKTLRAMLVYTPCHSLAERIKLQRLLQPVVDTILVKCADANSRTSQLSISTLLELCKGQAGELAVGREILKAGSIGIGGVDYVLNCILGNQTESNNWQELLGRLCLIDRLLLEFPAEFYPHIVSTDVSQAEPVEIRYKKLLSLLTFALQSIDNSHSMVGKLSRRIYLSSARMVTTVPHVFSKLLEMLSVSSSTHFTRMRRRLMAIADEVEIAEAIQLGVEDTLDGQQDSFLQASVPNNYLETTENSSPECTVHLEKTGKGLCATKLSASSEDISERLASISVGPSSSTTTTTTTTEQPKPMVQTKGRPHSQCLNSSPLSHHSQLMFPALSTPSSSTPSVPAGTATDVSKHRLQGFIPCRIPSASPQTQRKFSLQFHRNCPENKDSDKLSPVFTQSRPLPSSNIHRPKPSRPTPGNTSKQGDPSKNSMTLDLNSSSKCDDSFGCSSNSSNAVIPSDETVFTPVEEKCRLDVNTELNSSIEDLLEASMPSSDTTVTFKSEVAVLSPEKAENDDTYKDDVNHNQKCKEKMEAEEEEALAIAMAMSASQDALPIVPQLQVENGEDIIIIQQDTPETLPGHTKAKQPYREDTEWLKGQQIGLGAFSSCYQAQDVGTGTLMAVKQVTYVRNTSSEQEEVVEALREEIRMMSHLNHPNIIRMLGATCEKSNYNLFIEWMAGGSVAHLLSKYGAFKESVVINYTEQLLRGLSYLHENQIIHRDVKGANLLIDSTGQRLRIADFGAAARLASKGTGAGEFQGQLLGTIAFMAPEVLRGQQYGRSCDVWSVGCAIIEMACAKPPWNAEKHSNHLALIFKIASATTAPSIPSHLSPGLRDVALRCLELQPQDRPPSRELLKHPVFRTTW
row,SMILES,Kd
1,COc1cc2nccc(Oc3ccc(NC(=O)NC4CC4)c(Cl)c3)c2cc1C(N)=O [LENVATINIB],> 30 µM (inactive)
2,C1=C/COCc2cc(ccc2OCCN2CCCC2)Nc2nccc(n2)-c2cccc(c2)COC/1 [PACRITINIB],> 30 µM (inactive)
3,CNC(=O)c1ccc(C)c(-n2c(C)cc(OCc3ccc(F)cc3F)c(Br)c2=O)c1 [PH-797804],> 30 µM (inactive)

# Target: Non-receptor tyrosine-protein kinase TYK2 (Homo sapiens, UniProt P29597)
row,SMILES,Kd
1,COc1cc2nccc(Oc3ccc(NC(=O)NC4CC4)c(Cl)c3)c2cc1C(N)=O [LENVATINIB],> 30 µM (inactive)
2,CNC(=O)c1ccc(C)c(-n2c(C)cc(OCc3ccc(F)cc3F)c(Br)c2=O)c1 [PH-797804],> 30 µM (inactive)
